System: KRAS PDC tumor spheroids (HUVEC+MSC), viability
Assay: Anticancer human tumor 254851-301-R-J1-PDC patient-derived colon carcinoma cell line growth inhibition [KRAS2]
Conditions: for IC50: curve of first compound; for viability, T/C: stronger effect = lower value
Outline: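 Combination screen of spheroid viability in tumor-cell co-cultures with endothelial (HUVEC) and mesenchymal stem cell stroma. Each agent was tested in half-log dilutions, topping at clinical Cmax or at 10 microM without a known Cmax.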

[1] = second compound 0.1 µM, first compound 0.0316 µM
[2] = second compound 0.1 µM, first compound 0.1 µM
[3] = second compound 0.1 µM, first compound 0.316 µM
[4] = second compound 0.1 µM, first compound 1 µM
[5] = second compound 0.1 µM, first compound 3.16 µM
[6] = second compound 0.1 µM, first compound 10 µM
[7] = second compound 0.316 µM, first compound 0.0316 µM
[8] = second compound 0.316 µM, first compound 0.1 µM
[9] = second compound 0.316 µM, first compound 0.316 µM
[10] = second compound 0.316 µM, first compound 1 µM
[11] = second compound 0.316 µM, first compound 3.16 µM
[12] = second compound 0.316 µM, first compound 10 µM
[13] = second compound 1 µM, first compound 0.0316 µM
[14] = second compound 1 µM, first compound 0.1 µM
[15] = second compound 1 µM, first compound 0.316 µM
[16] = second compound 1 µM, first compound 1 µM
[17] = second compound 1 µM, first compound 3.16 µM
[18] = second compound 1 µM, first compound 10 µM
[19] = second compound 3.16 µM, first compound 0.0316 µM
[20] = second compound 3.16 µM, first compound 0.1 µM
[21] = second compound 3.16 µM, first compound 0.316 µM
[22] = second compound 3.16 µM, first compound 1 µM
[23] = second compound 3.16 µM, first compound 3.16 µM
[24] = second compound 3.16 µM, first compound 10 µM
[25] = second compound 10 µM, first compound 0.0316 µM
[26] = second compound 10 µM, first compound 0.1 µM
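Note: spheroids exposed to compounds for seven days before readout.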
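Throughout, for viability, T/C: 100% = DMSO vehicle control luminescence of the spheroids.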

In the case of `COc1cc(Nc2ncc3c(n2)-c2ccc(Cl)cc2C(c2c(F)cccc2OC)=NC3)ccc1C(=O)O` + C=CC(=O)N1CCN(c2nc(OCC3CCCN3C)nc3c2CCN(c2cccc4cccc(C)c24)C3)CC1CC#N, the IC50 (second compound 0.0316 µM) is reported as 89.2 nM, the IC50 (second compound 0.1 µM) is reported as 87.2 nM and the IC50 (second compound 0.316 µM) is reported as 89.1 nM. It also gave an IC50 (second compound 1 µM) of 78 nM, an IC50 (second compound 3.16 µM) of 34.6 nM and a viability, T/C (second compound 0.0316 µM, first compound 0.0316 µM) of 84.6%. The viability, T/C (second compound 0.0316 µM, first compound 0.1 µM) was 41.6%, the viability, T/C (second compound 0.0316 µM, first compound 0.316 µM) was 30.3% and the viability, T/C (second compound 0.0316 µM, first compound 1 µM) was 27.5%. The viability, T/C (second compound 0.0316 µM, first compound 3.16 µM) was 17.7%, the viability, T/C (second compound 0.0316 µM, first compound 10 µM) was 9.36% and the viability, T/C [1] was 82.4%. For the same compound, the viability, T/C [2] was 40%, the viability, T/C [3] was 31.1% and the viability, T/C [4] was 27%. For the same compound, the viability, T/C [5] was 16.2%, the viability, T/C [6] was 8.9% and the viability, T/C [7] was 79.4%. The viability, T/C [8] was 40.6%, the viability, T/C [9] was 32.7% and the viability, T/C [10] was 24.5%. It also gave a viability, T/C [11] of 17%, a viability, T/C [12] of 7.34% and a viability, T/C [13] of 73.5%. It also gave a viability, T/C [14] of 37.5%, a viability, T/C [15] of 32% and a viability, T/C [16] of 25.9%. The viability, T/C [17] was 16.4%, the viability, T/C [18] was 8.35% and the viability, T/C [19] was 53.9%. The viability, T/C [20] was 22.1%, the viability, T/C [21] was 19.8% and the viability, T/C [22] was 17%. For the same compound, the viability, T/C [23] was 6.88% and the viability, T/C [24] was 1.67%.

`CC1OCC2(CCN(c3cnc(Sc4ccnc(N)c4Cl)c(N)n3)CC2)C1N` (stereo not given) + COc1cc2nc(C)nc(NC(C)c3cc(N)cc(C(F)(F)F)c3)c2cc1OC1CCOC1 was tested, and the IC50 (second compound 0.1 µM) was greater than 10000 nM, the IC50 (second compound 0.316 µM) was greater than 10000 nM and the IC50 (second compound 1 µM) was greater than 10000 nM. The IC50 (second compound 3.16 µM) was greater than 10000 nM, the IC50 (second compound 10 µM) was greater than 10000 nM and the viability, T/C [1] was 118%. The viability, T/C [2] was 102%, the viability, T/C [3] was 91.7% and the viability, T/C [4] was 78.3%. For the same compound, the viability, T/C [5] was 82.6%, the viability, T/C [6] was 75.2% and the viability, T/C [7] was 105%. The viability, T/C [8] was 99.9%, the viability, T/C [9] was 107% and the viability, T/C [10] was 80%. For the same compound, the viability, T/C [11] was 80.7%, the viability, T/C [12] was 76.7% and the viability, T/C [13] was 98.7%. For the same compound, the viability, T/C [14] was 109%, the viability, T/C [15] was 103% and the viability, T/C [16] was 78.4%. The viability, T/C [17] was 78.6%, the viability, T/C [18] was 70.3% and the viability, T/C [19] was 83.8%. It also gave a viability, T/C [20] of 87.8%, a viability, T/C [21] of 78.6% and a viability, T/C [22] of 69.8%. It also gave a viability, T/C [23] of 80%, a viability, T/C [24] of 62.8% and a viability, T/C [25] of 76.4%. For the same compound, the viability, T/C [26] was 82.5%, the viability, T/C (second compound 10 µM, first compound 0.316 µM) was 70.9% and the viability, T/C (second compound 10 µM, first compound 1 µM) was 72%. The viability, T/C (second compound 10 µM, first compound 3.16 µM) was 64.4% and the viability, T/C (second compound 10 µM, first compound 10 µM) was 64.3%.

Compound `CC(C)n1nc(-c2ccc3oc(N)nc3c2)c2c(N)ncnc21` + CC1OCC2(CCN(c3cnc(Sc4ccnc(N)c4Cl)c(N)n3)CC2)C1N has an IC50 (second compound 0.1 µM) of 17.5 nM, an IC50 (second compound 0.316 µM) of 20.5 nM and an IC50 (second compound 1 µM) of 18.6 nM. It also gave an IC50 (second compound 3.16 µM) of 15.8 nM, an IC50 (second compound 10 µM) of 11.3 nM and a viability, T/C (second compound 0.1 µM, first compound 0.000316 µM) of 103%. For the same compound, the viability, T/C (second compound 0.1 µM, first compound 0.001 µM) was 98.2%, the viability, T/C (second compound 0.1 µM, first compound 0.00316 µM) was 89.3% and the viability, T/C (second compound 0.1 µM, first compound 0.01 µM) was 69.8%. It also gave a viability, T/C [1] of 29.4%, a viability, T/C [2] of 19.9% and a viability, T/C (second compound 0.316 µM, first compound 0.000316 µM) of 101%. For the same compound, the viability, T/C (second compound 0.316 µM, first compound 0.001 µM) was 99.7%, the viability, T/C (second compound 0.316 µM, first compound 0.00316 µM) was 88.8% and the viability, T/C (second compound 0.316 µM, first compound 0.01 µM) was 75.3%. The viability, T/C [7] was 34.4%, the viability, T/C [8] was 23.2% and the viability, T/C (second compound 1 µM, first compound 0.000316 µM) was 87.1%. The viability, T/C (second compound 1 µM, first compound 0.001 µM) was 78.5%, the viability, T/C (second compound 1 µM, first compound 0.00316 µM) was 84.5% and the viability, T/C (second compound 1 µM, first compound 0.01 µM) was 64.8%. For the same compound, the viability, T/C [13] was 36.8%, the viability, T/C [14] was 19.6% and the viability, T/C (second compound 3.16 µM, first compound 0.000316 µM) was 74.7%. For the same compound, the viability, T/C (second compound 3.16 µM, first compound 0.001 µM) was 72.5%, the viability, T/C (second compound 3.16 µM, first compound 0.00316 µM) was 72.3% and the viability, T/C (second compound 3.16 µM, first compound 0.01 µM) was 63.1%. It also gave a viability, T/C [19] of 30.2%, a viability, T/C [20] of 18.4% and a viability, T/C (second compound 10 µM, first compound 0.000316 µM) of 65%. For the same compound, the viability, T/C (second compound 10 µM, first compound 0.001 µM) was 71.7%, the viability, T/C (second compound 10 µM, first compound 0.00316 µM) was 66.6% and the viability, T/C (second compound 10 µM, first compound 0.01 µM) was 50.9%. It also gave a viability, T/C [25] of 31.3% and a viability, T/C [26] of 18.1%.
